From publication PMC4615156 (Nucleus, 2014)

Molecular target: PCNA (Homo sapiens, UniProt P12004)
Assay: Fixation of live cells labeled with the cell-permeable PIP
Format: cell-based
Conditions: PCNA expressing cells labeled live, then 3.7% formaldehyde

PCNA, sequence (P12004 whole entry): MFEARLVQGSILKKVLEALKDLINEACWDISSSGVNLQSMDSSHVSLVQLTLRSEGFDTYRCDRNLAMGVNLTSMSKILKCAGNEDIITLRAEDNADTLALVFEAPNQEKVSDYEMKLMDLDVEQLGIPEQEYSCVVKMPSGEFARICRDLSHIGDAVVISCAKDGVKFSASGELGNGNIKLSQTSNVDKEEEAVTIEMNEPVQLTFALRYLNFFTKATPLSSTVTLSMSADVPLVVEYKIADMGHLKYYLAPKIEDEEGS

RRRQRRKKRG-C C-SAVLQKKITDYFHPKKG-EDA-TAMRA (disulfide) [TAT(-SS-)PL-R]
Labeling of repair sites after fixation of live labeled cells: still marks repair sites
